Laboratory results taken from article PMC8428694, “Structural characterization of the Plasmodium falciparum lactate transporter PfFNT alone and in complex with antimalarial compound MMV007839 reveals its inhibition mechanism” (PLoS Biology, 2021).

Columns and labels:
[1] = target: T1, P. falciparum formate–nitrite transporter (PfFNT) (Plasmodium falciparum, UniProt O77389); experiment: ITC with purified protein; cryo-EM structure of the complex at […] Å; type: binding
T1 construct: gene PF3D7_0316600; full-length PfFNT, N-terminal Strep-tag; residues 7 to 293 modelled (apo structure); homopentamer

[2] = target: T2, P. falciparum formate–nitrite transporter (PfFNT) (Plasmodium falciparum, UniProt O77389, T106A); experiment: ITC with purified mutant protein; type: binding
T2 construct: gene PF3D7_0316600; PfFNT T106A mutant, purified as wild type (full-length, N-terminal Strep-tag)

[3] = target: the molecule itself; experiment: cryo-EM structure; purified PfFNT in GDN detergent (25 mM Tris pH 8.0, 150 mM NaCl, 0.06% GDN), incubated with 250 mM sodium lactate before grid preparation (no lactate density: apo form); C5 symmetry; 2.3 Å

Molecule: COc1ccc2c(c1)OC(O)(C(F)(F)C(F)(F)F)CC2=O (stereo not drawn) [MMV007839]
- Kd [1]: ~7.18 nM
- Kd [2]: 80.8 nM

B1: Plasmodium falciparum formate–nitrite transporter (PfFNT) (natural protein, P. falciparum, UniProt O77389 1-309, looked up)
chain: MPPNNSKYVLDPVSIKSVCGGEESYIRCVEYGKKKAHYSNLNLLAKAILAGMFVGLCAHASGIAGGLFYYHKLREIVGASMSVFVYGFTFPIAFMCIICTGSDLFTGNTLAVTMALYEKKVKLLDYLRVMTISLFGNYVGAVSFAFFVSYLSGAFTNVHAVEKNHFFQFLNDIAEKKVHHTFVECVSLAVGCNIFVCLAVYFVLTLKDGAGYVFSVFFAVYAFAIAGYEHIIANIYTLNIALMVNTKITVYQAYIKNLLPTLLGNYIAGAIVLGLPLYFIYKEHYYNFERSKRDNNDAQMKSLSIELRN
notes: PfFNT, lactate transporter of P. falciparum, UniProt O77389, encoded by pf3D7_0316600; full-length protein from codon-optimized cDNA; residues 7 to 293 of each protomer were assigned to the density map; Homopentamer in the cryo-EM structures; also called P. falciparum lactate transporter; wild-type PfFNT
- stoichiometry N [3]: 5
